Results from patent US9808434B2, “Compound for treating cancer and diabetes” (CITY OF HOPE, priority 2011, dated 2017).

Columns and labels:
HL-60 cells [1] = assay: Differentiation of HL-60 cells (Giemsa-Wright, NBT, CD11b/CD14); format: cell-based, human; details: 48 hours; for surface expression of CD11b and CD14: 0.5-3 μM, flow cytometry; for morphologic changes (Giemsa-Wright stain), myeloid differentiation: 2-10 μM
Procedure: HL-60 cells were incubated with a test compound at various concentrations (2˜10 μM), DMSO, or without any test compound for 48 hours, and then examined for morphologic changes by Giemsa-Wright stain. The results were observed microscopically and shown in FIG. 13 at a magnification of ×400. […] Such results were similar to cells treated with DMSO or all-trans retinoic acid (ATRA), wherein DMSO or ATRA terminally differentiated HL-60 cells into myeloid cells (FIG. 13).
HL-60 cells (2.5×10^5) were treated with or without a test compound for 48 hours and then stained with NBT, wherein positively-stained cells appeared as purple black (FIG. 14A). NBT positive cells were counted and the overall percentage was calculated based on 200 total cells counted for each treatment. Three˜four independent experiments were carried out, and data are shown as mean±SE (FIG. 14B). This measurement of “oxidative burst” by the NBT assay is a well-known and extensively tested functional marker of HL-60 cell differentiation.
HL-60 cells (2.5×10^5) were incubated with a test compound (COH-SR4 or COH-SR9) at a concentration of 0.5 μM, 1 μM, 2 μM, or 3 μM, or without any COH-SR compound for 48 hours and then assessed for the surface expression of CD11b (FIG. 14C) and CD14 (FIG. 14D) by flow cytometry, respectively. Three-four independent experiments were carried out, and data are shown as mean±SE (FIGS. 14C and 14D).

HL-60 cells [2] = assay: HL-60 cell cycle, PI flow cytometry; format: cell-based, human; details: for cells in the S phase: 3 μM, control 47%; for viable cells arrested in G0/G1 phase: 48-hour treatment
Procedure: HL-60 cells (1×10^6) were incubated with a test compound (COH-SR4 or COH-SR9) at various concentrations (0.5˜3 μM) for 48 hours, washed and harvested. The cells were then fixed and stained with propodium iodide (P1) and the DNA content was analyzed by flow cytometry. Results of each figure were from 3-4 independent experiments. The cell number in each cell cycle phase was calculated and expressed as overall percentage (FIG. 15A). The percentage of cells in G0/G1 were measured from 0-48-hour treatment with test compounds (FIG. 15B), data expressed as mean±SE.

B16-F0 = assay: Colony formation assay, B16-F0; format: cell-based, mouse; details: 10 μM, vs untreated control
Procedure: Cell survival was evaluated using a standard colony-forming assay. […] After 7 or 10 days, adherent colonies were fixed, stained with 0.5% methylene blue for 30 min and colonies were counted using the Innotech Alpha Imager HP (91).

[3] = tested on: human melanoma cells (SK-MEL28, A2058, A101D); assay: Oxygen consumption rate in melanoma cells, Seahorse; format: cell-based; details: 1-10 μM, monitored 2 h
Procedure: Oxygen consumption rate (OCR), a measure of OxPhos, and extracellular acidification rate (ECAR), a measure of lactate production by glycolysis, were measured using a Seahorse Xf^e96 Flux Analyzers (Seahorse Biosciences, North Billerica, Mass.). Cells were seeded in DMEM media in Seahorse 96-well tissue culture plates at a density of 5×10^3 cells/well and allowed to adhere for 24 h. Prior to the assay, the media was changed to unbuffered DMEM containing 25 mM glucose, 1 mM pyruvate and 1 mM glutamine, with 0.2% fatty acid/endotoxin-free BSA (w/v) (pH 7.4) and the cells were equilibrated for 30 min at 37° C. Test compounds were injected during the assay and OCR and ECAR were measured using 2-3 min measurement periods. […] OCR was measured throughout the different injections of the stressors and test compounds (indicated by arrows in the figures).
The importance of mitochondria as oxygen sensors as well as producers of ATP and ROS has recently become a focal point of cancer research. […] OCR was continuously monitored for 2 h. Mitochondria recoupler 6-KCH (200 μM) was added to the assay system prior to injection of COH-SR4 (5 μM) as shown by arrows and OCR of A101D cells were monitored (FIG. 37B). […]

HRE promoter = HRE promoter luciferase reporter in U251; format: cell-based; details: U251, 1 or 3 μM, 24 hours, normoxic and hypoxic
Procedure: U251 cells were transfected with plasmids expressing luciferase reporter genes driven by a HRE reporter plasmid containing five copies of the HRE site (5×HRE). Transfected cells were then incubated with COH-SR4 at various concentrations (0, 1, or 3 μM) for 24 hours and assayed for luciferase activities. Data were represented as a ratio to vehicle control that was treated by DMSO.

A2058 cells = assay: Annexin V / propidium iodide flow cytometry, A2058; format: cell-based, human
Procedure: Apoptosis of cells were measured based on loss of membrane integrity using Annexin V-FITC Apoptosis Detection Kit as described by the supplier (BD Biosciences Pharmingen, San Diego, Calif.), in which the early- and late-death cells were stained with Annexin V-FITC and propidium iodide. Cells were analyzed using a CyAn ADP cytometer (Beckman Coulter Inc) to quantify fluorescence. Apoptotic cells were defined as Annexin V-FITC positive.

Cc1c(Cl)cc(NC(=O)Nc2cc(Cl)cc(Cl)c2)c(O)c1Cl [COH-SR9, 1-(3,5-dichlorophenyl)-3-(3,5-dichloro-2-hydroxy-4-methyphenyl) urea]
superoxide production (NBT-positive cells) (HL-60 cells [1]): Induced Superoxide Production
surface expression of CD11b and CD14 (HL-60 cells [1]): dose-dependent increase in expression of both CD11 b and CD14
morphologic changes (Giemsa-Wright stain), myeloid differentiation (HL-60 cells [1]): exhibited cytoplasmic vacuolation, reduced nucleus-to-cytoplasmic ratio, and absence of prominent nucleoli
cells in the S phase (HL-60 cells [2]): 13%
viable cells arrested in G0/G1 phase (HL-60 cells [2]): 85%

O=C(Nc1cc(Cl)cc(Cl)c1)Nc1cc(Cl)cc(Cl)c1 [COH-SR4, 1,3-bis(3,5-dichlorophenyl) urea]
superoxide production (NBT-positive cells) (HL-60 cells [1]): Induced Superoxide Production
surface expression of CD11b and CD14 (HL-60 cells [1]): dose-dependent increase in expression of both CD11 b and CD14
morphologic changes (Giemsa-Wright stain), myeloid differentiation (HL-60 cells [1]): exhibited cytoplasmic vacuolation, reduced nucleus-to-cytoplasmic ratio, and absence of prominent nucleoli
colony formation (B16-F0): 38±9%
oxygen consumption rate (OCR) [3]: increased OCR in a time-dependent and dose-dependent manner
luciferase expression driven by HRE promoter (HRE promoter): inhibited luciferase expression driven by HRE promoter
cells in the S phase (HL-60 cells [2]): 10%
viable cells arrested in G0/G1 phase (HL-60 cells [2]): 85%
apoptosis (annexin V / propidium iodide) (A2058 cells): caused apoptosis in A2058 cells in a dose-dependent manner
